Source: publication PMC4772543, “Immune responses to Mycobacterial heat shock protein 70 accompany self-reactivity to human BiP in rheumatoid arthritis” (Scientific Reports, 2016)

Legend:
[1] = system: HLA-DR4-positive HD PBMCs; experiment: Proliferation of healthy donor PBMCs in response to peptide (3H-thymidine uptake); type: cell-based, human; conditions: HLA-DR4-positive healthy donors (SE +/− n = 10), peptide 10 μg/mL
Description: (§1) Figure 3 MycHSP70_287–306 was a HLA-DR4-restricted epitope in RA. (A) The proliferation of PBMCs in RA patients (Shared epitope (SE) +/+ n = 12, SE +/− n = 22, SE−/− n = 9) and HDs (SE +/− n = 10) in response to MycHSP70_287–306. Proliferation was determined by the incorporation of [3]-H thymidine. The stimulation index (SI) was calculated using the following equation: (median thymidine uptake to an antigen)/(median thymidine uptake in the absence of an antigen). Horizontal line: the median. (B) Amino acid sequences of MycHSP70 (lower lines) and human BiP (upper lines) near the epitopes. Epitope sequences are indicated in bold letters. […]
(§2) PBMCs (1 × 10^6/mL) isolated with Ficoll-Paque (GE Healthcare) were cultured in the presence or absence of each peptide (10 μg/mL) with RPMI 1640 medium supplemented with 10% human serum, 2 mM L-glutamine, 100 U/ml penicillin, and 100 μg/ml streptomycin in a humidified incubator at 37 °C, 5% CO2, for 96 hours. […] Counts per minute were measured with a scintillation counter. In some experiments, the culture supernatants were collected after a 72-hour incubation and cytokine concentrations were measured in the culture supernatants by a human IFN-γ high sensitivity ELISA kit and human IL-17 high sensitivity ELISA kit (eBioscience). […]

[2] = system: collagen-induced arthritis in DBA/1 J mice; experiment: Oral administration of peptide in collagen-induced arthritis (CIA); type: in vivo, mouse
Description: Figure 6 Oral tolerance of MycHSP70_287–306 peptides in a collagen-induced arthritis model. (A,B) The MycHSP70_287–306 peptide or control (PBS alone) was orally administered to bovine type II collagen-immunized DBA/1 J mice after the occurrence of CIA for 5 continuous days (n = 12). Mice were sacrificed on day 35. Arthritis scores were measured by finger and paw swelling, and histological scores were measured by cell infiltration (C), pannus formation (P), and bone destruction (B). (C) Splenic CD4^+ T cell proliferation from CIA-induced DBA/1 J mice in response to a recall antigen (Ag) stimulation (MycHSP70_287–306 and BiP336–355 epitopes, and heat-denatured bovine type II collagen (BC II)). Proliferation was determined by[3]-H thymidine incorporation. (D) Serum anti-BiP and anti-BC II antibody titers were measured by ELISA. (E,F) Mouse IL-10 and TGF-beta1 concentrations in the splenic CD4^+ T cell culture were measured by ELISA. Data were representative of at least three independent trials. *p < 0.05, **p < 0.01, ***p < 0.001.
Serum antibodies were measured by ELISA as previously reported. Briefly, 96-well plates (Thermo Fisher Scientific) were coated with 5 μg/mL of each antigen and dissolved in 0.1 M NaHCO3. Diluted samples (100x) were applied, followed by goat anti-human IgG-horseradish peroxidase (HRP) (5000:1,Vector) or goat anti-mouse IgG-HRP (5000:1, Life Technologies) detection antibodies and TMB solution (KPL) for development.
CIA in the background of DBA/1 J female mice (SLC Japan) was performed and arthritis scores were acquired as previously described. In the therapeutic experiments, mice were administered 200 μg of MycHSP287–306 peptides orally for 5 continuous days following the onset of arthritis. Mice were sacrificed on day 35, and the CD4^+ T cell culture was performed as described above. Mouse cytokine concentrations in the supernatants were measured using a mouse IL-10 ELISA kit and mouse/human TGF-beta 1 ELISA kit (eBioscience) according to the manufacturer’s protocol. Tissue samples were embedded in paraffin wax after 10% formaldehyde fixation and decalcification. Sections were stained with hematoxylin and eosin. Synovial tissues were graded by mononuclear cell infiltration, pannus formation, and cartilage erosion, as described previously. All animal experiments were conducted in accordance with Institutional and National Guidelines, and the protocols were approved by the Ethical Committee on Animal Experiments of the University of Tokyo. […]
Oral tolerance of MycHSP70287-306 peptides on collagen-induced arthritis (CIA) model. The experimental protocol was the same as Figure 6.
(A)(B)Mouse IL-17 and IFN-gamma concentrations in the splenic CD4+ T cell culture was measured by ELISA (Mouse cytokine ELISA ready-set-go, eBioscience) according to the manufacture’s protocol. (C) The frequencies of splenic regulatory T cells in CIA (n=4, each). FACS analysis was performed by FACS Vantage (BD Bioscience). Cells were stained by anti-mouse CD4
APC antibody, anti-mouse CD25 FITC antibody, FOXP3 staining was performed using anti-mouse Foxp3 PE antibody (eBioscience) by using […]

[3] = system: PBMCs from shared epitope (SE)-positive RA patients; experiment: Proliferation of PBMCs from RA patients in response to MycHSP70-derived peptides (3H-thymidine uptake); type: cell-based, human
Description: as §1, §2

[4] = system: PBMCs of HLA-DR4-positive RA patients; experiment: Peptide-induced cytokine secretion from PBMCs (ELISA); type: cell-based, human
Description: Figure 3 MycHSP70_287–306 was a HLA-DR4-restricted epitope in RA. (A) The proliferation of PBMCs in RA patients (Shared epitope (SE) +/+ n = 12, SE +/− n = 22, SE−/− n = 9) and HDs (SE +/− n = 10) in response to MycHSP70_287–306. Proliferation was determined by the incorporation of [3]-H thymidine. The stimulation index (SI) was calculated using the following equation: (median thymidine uptake to an antigen)/(median thymidine uptake in the absence of an antigen). Horizontal line: the median. (B) Amino acid sequences of MycHSP70 (lower lines) and human BiP (upper lines) near the epitopes. Epitope sequences are indicated in bold letters. (C) Relationship between MycHSP70_287–306-induced proliferation and BiP336–355-induced proliferation in RA PBMCs (9 patients with SE +/+ and 14 patients with SE +/−). (D) Blockade of the MycHSP287–306-induced proliferation of PBMCs from HLA-DR4-positive RA patients (n = 6) using an anti-HLA-DR antibody. (E) The secretion of MycHSP287–306-induced IFN-γ from the PBMCs of HLA-DR4-positive HDs (n = 6) and RA patients (n = 8). (F) Blockade of MycHSP287–306-induced cytokine secretion from the PBMCs of HLA-DR4-positive RA patients (n = 6) using an anti-HLA-DR antibody. *p < 0.05, **p < 0.01, ***p < 0.001.
PBMCs (1 × 10^6/mL) isolated with Ficoll-Paque (GE Healthcare) were cultured in the presence or absence of each peptide (10 μg/mL) with RPMI 1640 medium supplemented with 10% human serum, 2 mM L-glutamine, 100 U/ml penicillin, and 100 μg/ml streptomycin in a humidified incubator at 37 °C, 5% CO2, for 96 hours. Cells were incubated for 18 h following a ^3H-thymidine pulse into each well and harvested using a semiautomated sample harvester. Counts per minute were measured with a scintillation counter. In some experiments, the culture supernatants were collected after a 72-hour incubation and cytokine concentrations were measured in the culture supernatants by a human IFN-γ high sensitivity ELISA kit and human IL-17 high sensitivity ELISA kit (eBioscience). […]

[5] = CIA mice given peptide orally vs PBS, ELISA
[6] = peptide 10 μg/mL, supernatant after 72-hour incubation, ELISA

## DRTRKPFQSVIADTGISVSE [MycHSP70_287–306]
[1]
  peptide-induced proliferation of HD PBMCs: not observed
[2]; 200 μg peptide orally for 5 continuous days after onset of arthritis, vs PBS, n = 12, sacrificed day 35
  development of arthritis (arthritis scores): significantly improved
[2]; 200 μg peptide orally for 5 continuous days, cell infiltration, pannus formation, bone destruction, day 35
  histological scores: significantly improved
[2]; [5]
  serum anti-BC II antibody titers: significantly decreased
  serum anti-BiP antibody titers: significantly decreased
[2]; splenic, CIA mice given peptide orally vs PBS, n=4 each, FACS
  frequency of CD4+ CD25+ Foxp3+ regulatory T cells: increased
[3]; HLA-DR4-positive RA patients n = 6, anti-HLA DR monoclonal antibody (L243) 10 μg/mL
  peptide-induced PBMC proliferation under blockade of HLA-DR: clearly inhibited
[3]; screen of 43 MycHSP70-derived 20-mer peptides, 10 μg/mL, 96 hours, 3H-thymidine uptake, HLA-DR4-positive RA patients n = 20
  proliferation of PBMCs, mean stimulation index: highest proliferative responses
[4]; HLA-DR4-positive RA patients n = 6, anti-HLA DR antibody (L243) 10 μg/mL
  peptide-induced IFN-γ and IL-17 secretion with anti-HLA-DR antibody: blocked
[4]; [6]
  secretion of interferon (IFN)-γ: induced
  secretion of interleukin (IL)-17: induced
